# Measured values as given in paper PMC6753678, “Fueling Open Innovation for Malaria Transmission-Blocking Drugs: Hundreds of Molecules Targeting Early Parasite Mosquito Stages” (Frontiers in Microbiology, 2019).
# Like-named read-outs stand apart in the source and are kept apart here.
# Tests used:
# [1] = system: 3D7-strain P. falciparum asexual parasites; assay: P. falciparum asexual growth inhibition assay (Pf GIA); assay type: cell-based, Plasmodium falciparum; settings: dose response confirmation; read-out: Pf asexual growth inhibition assays IC50
# Method: The asexual activity of active compounds was tested in dose response with parasite lactate dehydrogenase (LDH) activity used as a readout of parasite viability as described in [Gamo et al. (2010)]. Briefly, 3D7-strain P. falciparum asexual parasites were diluted to 0.25% parasitemia, 2% hematocrit in culture medium composed of RPMI medium with 25 mM HEPES, 2% D-sucrose, 0.3% L-glutamine, 150 μM hypoxanthine plus 5% albumax. 25 μl of parasite inoculum was then dispensed into each well of a 384 well plate containing test compounds and positive (50 μM chloroquine) and negative (DMSO) controls. Plates were incubated for 72 h at 37°C in a 5% CO2, 5%O2, 90% N2 environment before being frozen at −70°C. Plates were then thawed and 70 μl of reaction mix (143 mM sodium L-lactate, 143 mM 3-acetyl pyridine adenine dinucleotide, […] Nitro Blue tetrazolium chloride, […] diaphorase (2.83 U/ml), 0.7% Tween 20, 100 mM Tris–HCl pH 8.0) was added to each well using a Multidrop Combi automated dispenser. Plates were shaken to mix and then absorbance at 650 nm was measured after 10 min incubation at room temperature. Percent inhibition of asexual growth was then calculated with respect to positive and negative controls. Data presented is the mean of three independent biological replicates.
# [2] = system: HepG2 cells; assay: HepG2 cytotoxicity assay; settings: for IC50: read-out: HepG2 cytotoxicity assay IC50, dose response confirmation; for Pb ODA (this manuscript) HepG2 cytoxicity: HepG2 cytotoxicity listed with the Pb ODA data set (this manuscript)
# Method: Briefly, HepG2 cells were seeded onto compound-treated 384 well plates at a density of 2,500 cells per well in Minimal Essential Medium (MEM) plus 10% fetal bovine serum and 1% non-essential amino acids solution (NEAA). Cells were incubated with test compounds or 50 μM doxorubicin (positive) and DSMO (negative) controls at 37°C for 48 h in a humidified 5% CO2 atmosphere. […] Cell viability was then measured in a fluorescent plate reader and percent inhibition calculated with respect to positive and negative controls.
# [3] = system: P. berghei ookinete development; settings: for % inhibition, Replicate A / % inhibition, Replicate B: primary screen at 1 μM
# [4] = unified HepG2 value across the three screens
# [5] = read-out: Pb ODA IC50, this manuscript
# [6] = read-out: Pb Ookinete development assay IC50, dose response confirmation
# [7] = read-out: Pb ODA (this manuscript) IC50, P. berghei ookinete development assay, this manuscript
SMILES,IC50 [1],IC50 [2],"Unified cytotox [2, 4]","Is compound selective in assay? Pb ODA active? ([3]; 1: YES, 0: NO)","% inhibition, Replicate A [3]","% inhibition, Replicate B [3]","IC50 [3, 5]","IC50 [3, 6]",Pb ODA (this manuscript) HepG2 cytoxicity [2],Is compound selective in assay? Pb ODA active? [3],"IC50 [3, 7]","HepG2 cytoxicity (Pb ODA, this manuscript) ([2]; HepG2, this manuscript)",Unified cytotox ([2]; HepG2 values of the three screens unified)
O=C(c1cccs1)N1CCN(c2ccc([N+](=O)[O-])c(NC3CC3)c2)CC1 [TCMDC-123877],2660 nM,100000 nM,100.00 µM,1 (1: YES),53.49%,54.36%,1700 nM,1700 nM,–,–,–,–,–
O=c1nc(C=Cc2ccc(Br)cc2)oc2ccccc12 [TCMDC-123878],1730 nM,100000 nM,–,–,55.97%,32.93%,–,2720 nM,100.00 µM,1 (key: 1: YES; 0: NO),2720 nM,–,–
Br.CC(CCON1C(N)=NC(N)=NC1(C)C)c1ccc(Cl)c(Cl)c1 (centres unmarked) [TCMDC-123922],< 0.2 nM,1 nM,–,0 (0: NO),47.79%,55.73%,5760 nM,5760 nM,–,–,–,0.001 µM,0.001 µM
O=c1c2ccccc2[nH]c2cc(Cl)ccc12 [TCMDC-123989],1280 nM,50700 nM,50.70 µM,1 (1: YES),43.19%,69.34%,1180 nM,1180 nM,–,–,–,–,–
CC(Cl)=CCc1c(C)[nH]c2c(ccc3ccccc32)c1=O [TCMDC-124085],276 nM,100000 nM,–,–,85.49%,96.24%,–,328 nM,100.00 µM,1 (key: 1: YES; 0: NO),330 nM,–,–
CCOC(=O)C(=O)N1c2ccc(OCC)cc2-c2c(ssc2=S)C1(C)C [TCMDC-124090],89 nM,100000 nM,100.00 µM,1 (1: YES),23.50%,54.71%,2010 nM,2010 nM,–,–,–,–,–
CC(C)c1nc(N2CCN(C(=S)NCc3ccccc3)CC2)c(C#N)c2c1COC(C)(C)C2 [TCMDC-124093],55 nM,1.7 nM,0.0017 µM,0 (0: NO),50.94%,54.99%,–,760 nM,–,–,–,–,–
Cc1cc(C)cc(-n2c(C)cc(/C=C3\SC(=Nc4ccc(Cl)cc4)NC3=O)c2C)c1 [TCMDC-124103],32 nM,100000 nM,100.00 µM,1 (1: YES),110.51%,94.72%,560 nM,561 nM,–,–,–,–,–
CCOC(=O)c1c(CN2CCCC2)n(-c2ccccc2)c2cc(Br)c(O)cc12 [TCMDC-124122],658 nM,71600 nM,71.61 µM,0 (0: NO),64.42%,39.97%,7760 nM,7760 nM,–,–,–,–,–
Cc1ccc(Nc2nc(N/N=C/c3cccc(O)c3)nc(Nc3ccc([N+](=O)[O-])cc3)n2)cc1C [TCMDC-124125],1820 nM,100000 nM,100.00 µM,1 (1: YES),68.98%,54.76%,3830 nM,3830 nM,–,–,–,–,–
COc1ccc2nc3cc(Cl)ccc3c(NCCCO)c2c1 [TCMDC-124144],210 nM,7080 nM,–,–,19.58%,67.10%,–,1300 nM,7.08 µM,0 (key: 1: YES; 0: NO),–,–,–
CC(C)CN1CCN(c2nc(C#N)c3c(c2C(=S)NC2CCCCC2)CC(C)(C)OC3)CC1 [TCMDC-124173],415 nM,100000 nM,100.00 µM,1 (1: YES),37.56%,54.94%,4890 nM,4890 nM,–,–,–,–,–
